From PMC7272617 (Scientific Reports, 2020)
≈ marks a conversion by molar mass, not a printed value. Like-named read-outs stand apart in the source and are kept apart here. Where a SMILES comes first, the peptide text is derived from it. Bridges are numbered along the chain shown (N, C = ends). [ ]: non-standard residue; d: D form. The star is where a group is joined. X1 = CC[C@H](C)CCCCC(=O)*; Dab = NCC[C@H](N)C(=O)O

Legend:
[1] = test system: Escherichia coli ATCC 25922; conditions: ATCC 25922, 24 h
[2] = test system: Gram-negative and -positive bacterial strains; test: MIC against the panel of Gram-negative and -positive bacterial strains; type: cell-based; conditions: 12 strains of Table 3; result in words
[3] = test system: all Gram-positive strains; test: Mean MIC and therapeutic index, Gram-positive strains; type: cell-based; conditions: 5 Gram-positive strains of Table 3
Method: (§1) The antimicrobial activity of the peptides was determined against both Gram-positive and -negative bacteria including 14 MDR P. aeruginosa clinical isolates from Bhumibol Adulyadej Hospital (Tables 1 and 3). The minimal inhibitory concentration (MIC) of each peptide was measured according to a modification of the National Committee for Clinical Laboratory Standards (NCCLS) broth microdilution method as previously described. Briefly, bacterial cells in mid-log phase were cultured in Müeller-Hinton broth (MHB) and then diluted to 10^7 CFU/ml. […] Plates were incubated at 37 °C for 24 h, and MICs were defined as the lowest concentration of peptide that prevented visible turbidity. Cultures without peptides and uninoculated MHB were employed as positive and negative controls, respectively. Colony count assays were performed to determine the minimal bactericidal concentrations (MBCs) for determination of time-killing activity. As previously described, a 50 μl aliquot from each non-turbid well identified in the MIC determination experiment was spread on agar plates.
(§2) To further evaluate the global activity of these peptides, the geometric mean (GM) MIC and the therapeutic index (TI) of each were calculated (Table 3). The TI, a widely used parameter to evaluate cell selectivity and specificity of antimicrobial agents, was calculated as the ratio of MHC (the concentration that causes 10% hemolysis) to the geometric mean of MICs[22]. Higher TIs indicated greater cell selectivity and specificity.

[4] = test system: Bacillus cereus ATCC 11778; conditions: ATCC 11778, 24 h
[5] = test system: Shigella sonnei ATCC 11060; conditions: MHB, 37 °C, 24 h
[6] = test system: Vibrio cholera O1 Inaba DMST 16261; conditions: MHB, 37 °C, 24 h
[7] = test system: Listeria monocytogenes 10403 s; conditions: 10403 s, 24 h
[8] = test system: Salmonella Typhimurium ATCC 13311; conditions: ATCC 13311, 24 h
[9] = test system: Pseudomonas aeruginosa ATCC 27853
[10] = test system: Staphylococcus aureus ATCC 25923; conditions: ATCC 25923, 24 h
[11] = test system: Staphylococcus epidermidis ATCC 12228; conditions: ATCC 12228, 24 h
[12] = test system: all Gram-negative strains; test: Mean MIC and therapeutic index, Gram-negative strains; type: cell-based; conditions: 7 Gram-negative strains of Table 3
Method: as §1, §2

[13] = test system: Enterococcus faecalis ATCC 29212; conditions: ATCC 29212, 24 h
[14] = test system: Acinetobacter baumannii MT strain; conditions: MT strain, 24 h
[15] = test system: Escherichia coli O157:H7 MT strain; conditions: E. coli O157:H7 MT strain; MHB, 37 °C, 24 h
[16] = test system: MDR P. aeruginosa clinical isolate No.9; conditions: MDR P. aeruginosa clinical isolate No.9
[17] = test system: MDR P. aeruginosa clinical isolate No.6; conditions: MDR P. aeruginosa clinical isolate No.6
[18] = test system: MDR P. aeruginosa clinical isolate No.10; conditions: MDR P. aeruginosa clinical isolate No.10
[19] = test system: MDR P. aeruginosa clinical isolate No.7; conditions: MDR P. aeruginosa clinical isolate No.7
[20] = test system: MDR P. aeruginosa clinical isolate No.5; conditions: MDR P. aeruginosa clinical isolate No.5
[21] = test system: MDR P. aeruginosa clinical isolate No.14; conditions: MDR P. aeruginosa clinical isolate No.14
[22] = test system: MDR P. aeruginosa clinical isolate No.4; conditions: MDR P. aeruginosa clinical isolate No.4
[23] = test system: MDR P. aeruginosa clinical isolate No.8; conditions: MDR P. aeruginosa clinical isolate No.8
[24] = test system: MDR P. aeruginosa clinical isolate No.11; conditions: MDR P. aeruginosa clinical isolate No.11
[25] = test system: MDR P. aeruginosa clinical isolate No.1
[26] = test system: MDR P. aeruginosa clinical isolate No.2; conditions: MDR P. aeruginosa clinical isolate No.2
[27] = test system: MDR P. aeruginosa clinical isolate No.12
[28] = test system: MDR P. aeruginosa clinical isolate No.13; conditions: MDR P. aeruginosa clinical isolate No.13
[29] = test system: MDR P. aeruginosa clinical isolate No.3; conditions: MDR P. aeruginosa clinical isolate No.3
[30] = P. aeruginosa ATCC 27853, MHB, 10^7 CFU/ml, 37 °C, 24 h, no visible turbidity

| Compound | MIC [1] | antibacterial activity against tested microorganisms [2] | GM (Gr.+ strains): geometric mean of MIC values from all Gram-positive strains [3] | MIC [4] | MIC [5] | MIC [6] | MIC [7] | MIC [8] | MIC ([9]; ATCC 27853, 24 h) | MIC [10] | MIC [11] | GM (Gr.− strains): geometric mean of MIC values from all Gram-negative strains [12] | MIC [13] | MIC [14] | MIC [15] | MIC [16] | MIC [17] | MIC [18] | MIC [19] | MIC [20] | further results |
| --- | --- | --- | --- | --- | --- | --- | --- | --- | --- | --- | --- | --- | --- | --- | --- | --- | --- | --- | --- | --- | --- |
| CC[C@H](C)[C@H](NC(=O)[C@H](CC(=O)O)NC(=O)[C@H](Cc1ccccc1)NC(=O)[C@H](CC(C)C)NC(=O)CN)C(=O)N[C@H](C(=O)N[C@@H](CCCCN)C(=O)N[C@@H](CCCCN)C(=O)N[C@H](C(=O)N[C@@H](C)C(=O)NCC(N)=O)C(C)C)C(C)C [A0] (H-GLFDIVKKVAG-NH2; N-terminus assumed) | >250 µg/mL | no antibacterial activity | >250 µg/mL | >250 µg/mL | >250 µg/mL | >250 µg/mL | >250 µg/mL | >250 µg/mL | >250 µg/mL | >250 µg/mL | >250 µg/mL | >250 µg/mL | >250 µg/mL | >250 µg/mL | >250 µg/mL |  |  |  |  |  |  |
| CC(C)C[C@H](NC(=O)[C@@H](N)CCCNC(=N)N)C(=O)N[C@@H](Cc1ccccc1)C(=O)N[C@@H](CCCNC(=N)N)C(=O)N[C@@H](CCCNC(=N)N)C(=O)N[C@H](C(=O)N[C@@H](CCCCN)C(=O)N[C@@H](CCCCN)C(=O)N[C@H](C(=O)N[C@@H](C)C(=O)NCC(N)=O)C(C)C)C(C)C [A3] (H-RLFRRVKKVAG-NH2; N-terminus assumed) | >250 µg/mL | no antibacterial activity | >250 µg/mL | >250 µg/mL | >250 µg/mL | >250 µg/mL | 250 µg/mL (≈ 188 µM) | >250 µg/mL | >250 µg/mL | >250 µg/mL | >250 µg/mL | >250 µg/mL | >250 µg/mL | >250 µg/mL | >250 µg/mL |  |  |  |  |  |  |
| CC[C@H](C)CCCCC(=O)N[C@@H](CCN)C(=O)N[C@H](C(=O)N[C@@H](CCN)C(=O)N[C@H]1CCNC(=O)[C@H]([C@@H](C)O)NC(=O)[C@H](CCN)NC(=O)[C@H](CCN)NC(=O)[C@H](CC(C)C)NC(=O)[C@@H](CC(C)C)NC(=O)[C@H](CCN)NC1=O)[C@@H](C)O [Colistin] (X1-[Dab]T[Dab][Dab][Dab][dL]L[Dab][Dab]T; lactam 4-C (inferred); N-terminus assumed) |  |  |  |  |  |  |  |  |  |  |  |  |  |  |  | 0.98 µg/mL (≈ 0.838 µM) | 1.95 µg/mL (≈ 1.67 µM) | 1.95 µg/mL (≈ 1.67 µM) | 0.98 µg/mL (≈ 0.838 µM) | 1.95 µg/mL (≈ 1.67 µM) | MIC [21]: 0.98 µg/mL (≈ 0.838 µM); MIC [22]: 1.95 µg/mL (≈ 1.67 µM); MIC [23]: 0.98 µg/mL (≈ 0.838 µM); MIC [24]: 1.95 µg/mL (≈ 1.67 µM); MIC [9, 30]: ≤0.98 µg/mL; MIC [25]: 1.95 µg/mL (≈ 1.67 µM); MIC [26]: 1.95 µg/mL (≈ 1.67 µM); MIC [27]: 1.95 µg/mL (≈ 1.67 µM); MIC [28]: 0.98 µg/mL (≈ 0.838 µM); MIC [29]: 1.95 µg/mL (≈ 1.67 µM) |
| CC[C@H](C)[C@H](NC(=O)[C@H](CCCNC(=N)N)NC(=O)[C@H](CCCCN)NC(=O)[C@H](CCCCN)NC(=O)[C@@H](NC(=O)[C@H](CCCCN)NC(=O)[C@H](CCC(=O)O)NC(=O)[C@H](CCCCN)NC(=O)[C@@H](N)CCCNC(=N)N)[C@@H](C)CC)C(=O)NCC(=O)N[C@@H](CCCCN)C(=O)N[C@H](C(=O)N[C@@H](CC(=O)O)C(=O)N[C@@H](CCCNC(=N)N)C(=O)N[C@@H](CC(C)C)C(N)=O)[C@@H](C)CC [P0] (H-RKEKIKKRIGKIDRL-NH2; N-terminus assumed) | >250 µg/mL | no antibacterial activity | >250 µg/mL | >250 µg/mL | >250 µg/mL | >250 µg/mL | >250 µg/mL | >250 µg/mL | >250 µg/mL | >250 µg/mL | >250 µg/mL | >250 µg/mL | >250 µg/mL | >250 µg/mL | >250 µg/mL |  |  |  |  |  |  |
| Gentamycin |  |  |  |  |  |  |  |  |  |  |  |  |  |  |  | >125 µg/mL | >125 µg/mL | >125 µg/mL | 125 µg/mL | 125 µg/mL | MIC [21]: >125 µg/mL; MIC [22]: >125 µg/mL; MIC [23]: >125 µg/mL; MIC [24]: >125 µg/mL; MIC [9, 30]: ≤0.98 µg/mL; MIC [25]: >125 µg/mL; MIC [26]: >125 µg/mL; MIC [27]: 125 µg/mL; MIC [28]: >125 µg/mL; MIC [29]: >125 µg/mL |
